Test results from patent publication US20230414626A1, “INDUCTION OF FERROPTOSIS FOR CANCER THERAPY” (Memorial Sloan Kettering Cancer Center, priority 2020, published 2023).

What was measured:
SREBP1 (SREBP1m) = experiment: Western blot of mature SREBP1; assay type: cell-based, human; details: RSL3-resistant cancer cells (BT474, MDA-MB-453, MCF7); CCI-779 0.5 μM
Protocol: FIG. 4 A-F. mTORC1 activation suppresses ferroptosis by upregulating SREBP1. (A) BT474 and MDA-MB-453 cells were treated as indicated. RSL3, 0.5 μM; CCI-779, 0.5 μM. Cell lysates were collected after 8 h and 24 h of treatment for BT474 cells and MDA-MB-453 cells, respectively, for western blot detecting […], total S6K, unprocessed SREBP1 (SREBP1(p)) and processed, mature SREBP1 (SREBP1(m)). (B) Cells were treated as indicated. RSL3, 0.5 μM for BT474 cells and 1 μM for MDA-MB-453 cells; Fer-1, 1 μM. (C) Cells were treated as in panel B. Lipid peroxidation was measured. (D) 3D spheroids derived from BT474 cells harboring control or SREBF1 sgRNA were treated as indicated. CCI-779, 0.5 μM; RSL3, 0.5 μM; Fer-1, 1 μM. Top, cell death stained by Sytox Green (scale bar, 100 μm). Bottom, cell viability. (E) SREBP1m was overexpressed in BT474 cells and determined by western blot. Cells were treated as indicated. RSL3, 0.5 μM; CCI-779, 0.5 μM. Cell death was measured (bottom panel). (F) 3D spheroids derived from BT474 cells were treated as indicated. RSL3, 0.5 μM; CCI-779, 0.5 μM; Fer-1, 1 μM. Top, cell death stained by Sytox Green (scale bar, 100 m). […]
FIG. 9 A-F. SREBP1 protects cells from ferroptosis. […] (C) Efficiency of SREBF1 Knockout in BT474, MDA-MB-453, and MCF7 cells was monitored by western blot. […] (F) SREBP1m was overexpressed in MCF7, MDA-MB-453 and A549 cells and determined by western blot. […]

NRF2 = experiment: Western blot of NRF2; assay type: cell-based, human; details: BT474 cells, 8 h; RSL3 0.5 μM; Torin 1 μM
Protocol: FIG. 3 A-E. NRF2 is not the major mediator of the ferroptosis-suppressing activity of mTORC1. (A) BT474 cells were treated as indicated for 8 h. RSL3, 0.5 μM; Torin, 1 μM. Western blot was performed to measure […], total S6K and NRF2. (B) NRF2 was depleted by CRISPR/Cas9 technology in HT1080 cells. NRF2 level was measured by western blot. (C) Control or NRF2-depleted cells were treated as indicated. Erastin, 0.5 μM; RSL3, 25 nM. (D) HepG2 cells with or without NRF2 depletion were treated with cysteine starvation with or without CCI-779 (0.5 μM) as indicated. Sytox Green were added after 48 h for cell death staining (scale bar, 100 m). (E) PC-3 cells with or without NRF2 depletion were treated with cysteine starvation with or without CCI-779 (0.5 μM) as indicated. Sytox Green were added after 48 h for cell death staining (scale bar, 100 m).
Cell lysates were resolved on SDS-PAGE gels and transferred to a nitrocellulose membranes. The membranes were incubated in 5% skim milk for 1 hour at room temperature and then incubated with primary antibodies diluted in blocking buffer at 4° C. overnight. […]

SMILES | level of the mature form of SREBP1 (SREBP1m) (SREBP1 (SREBP1m)) | RSL3-induced NRF2 accumulation (NRF2)
CO[C@H]1C[C@@H]2CC[C@@H](C)[C@@](O)(O2)C(=O)C(=O)N2CCCC[C@H]2C(=O)O[C@H]([C@H](C)C[C@@H]2CC[C@@H](OC(=O)C(C)(CO)CO)[C@H](OC)C2)CC(=O)[C@H](C)/C=C(\C)[C@@H](O)[C@@H](OC)C(=O)[C@H](C)C[C@H](C)/C=C/C=C/C=C/1C [CCI-779, Temsirolimus] | decreased | –
CCC(=O)N1CCN(c2ccc(-n3c(=O)ccc4cnc5ccc(-c6cnc7ccccc7c6)cc5c43)cc2C(F)(F)F)CC1 [Torin] | – | ablated
